Test results as given in PMC9671096 (Molecular pharmaceutics, 2021).
Values belong to the compound of their own block, whether it stands above or below them. Where a SMILES comes first, the peptide text is derived from it. The star is where a group is joined. Cbz = O=C(OCc1ccccc1)*

Assays:
ERs = format: binding, human; conditions: IC50 of 17β-E2 divided by IC50 of test compound; MCF-7 cytosol
HiBiT-ERα = target: T1, HiBiT-ERα (Homo sapiens, UniProt P03372); format: cell-based; conditions: for effect on UI-EP001/UI-EP002-mediated degradation of HiBiT-ERα: with 100 μM UI-EP001 or UI-EP002, 1 hour, MG132 10 μM, chloroquine 100 μM, E2 or aldosterone 100 nM-100 μM
T1 sequence (P03372 1-595): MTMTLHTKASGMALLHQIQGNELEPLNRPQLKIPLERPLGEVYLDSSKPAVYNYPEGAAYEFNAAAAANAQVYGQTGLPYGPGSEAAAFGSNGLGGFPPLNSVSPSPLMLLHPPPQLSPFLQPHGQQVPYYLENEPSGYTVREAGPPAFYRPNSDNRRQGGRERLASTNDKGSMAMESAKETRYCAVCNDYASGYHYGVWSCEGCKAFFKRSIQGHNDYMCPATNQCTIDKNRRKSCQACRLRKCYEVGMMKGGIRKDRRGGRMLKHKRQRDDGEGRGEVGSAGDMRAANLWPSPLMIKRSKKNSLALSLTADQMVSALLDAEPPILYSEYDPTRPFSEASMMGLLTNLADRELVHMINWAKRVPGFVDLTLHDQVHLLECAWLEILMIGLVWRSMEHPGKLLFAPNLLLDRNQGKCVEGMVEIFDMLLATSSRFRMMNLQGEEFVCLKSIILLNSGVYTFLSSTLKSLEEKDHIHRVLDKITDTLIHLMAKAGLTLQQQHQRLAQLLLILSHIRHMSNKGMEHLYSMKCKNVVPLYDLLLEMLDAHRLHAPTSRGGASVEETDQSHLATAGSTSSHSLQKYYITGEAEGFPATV

HiBiT-GPER = HiBiT-GPER (Homo sapiens, UniProt Q99527); format: cell-based; conditions: for effect on UI-EP001/UI-EP002-mediated degradation of HiBiT-GPER: with 100 μM UI-EP001 or UI-EP002, 1 hour, MG132 10 μM, chloroquine 100 μM, E2 or aldosterone 100 nM-100 μM
GPER [1] = target: T2, GPER (Homo sapiens, UniProt Q99527); test: Intact cell competitive binding assay with E2-FITC tracer; conditions: intact SKBR3 cells, concentrations as high as 10 μM
SKBR3 = test: Cell cycle analysis; format: cell-based, human; conditions: SKBR3, 10 μM, 24 hours
ERβ = ERβ (Homo sapiens, UniProt Q92731); test: Immunostaining of endogenous ERβ in MCF-7 cells; format: cell-based; conditions: 1 hour
GPER [2] = target: T2, GPER; test: Immunostaining of endogenous GPER in MCF-7 cells; format: cell-based; conditions: 1 hour
ERα = target: T3, ERα (Homo sapiens, UniProt P03372); test: Immunostaining of endogenous ERα in MCF-7 cells; format: cell-based; conditions: 1 hour
T3 sequence (P03372 1-595): T1 sequence (P03372 1-595)

MCF-7 = test: Cell cycle analysis; format: cell-based, human; conditions: MCF-7, 10 μM, 24 hours
HCC-1806 = test: Cell cycle analysis; format: cell-based, human; conditions: HCC-1806, 10 μM, 24 hours
MDA-MB-231 = test: Cell cycle analysis; format: cell-based, human; conditions: MDA-MB-231, 10 μM, 24 hours

Sequence of HiBiT-GPER (Q99527 whole entry): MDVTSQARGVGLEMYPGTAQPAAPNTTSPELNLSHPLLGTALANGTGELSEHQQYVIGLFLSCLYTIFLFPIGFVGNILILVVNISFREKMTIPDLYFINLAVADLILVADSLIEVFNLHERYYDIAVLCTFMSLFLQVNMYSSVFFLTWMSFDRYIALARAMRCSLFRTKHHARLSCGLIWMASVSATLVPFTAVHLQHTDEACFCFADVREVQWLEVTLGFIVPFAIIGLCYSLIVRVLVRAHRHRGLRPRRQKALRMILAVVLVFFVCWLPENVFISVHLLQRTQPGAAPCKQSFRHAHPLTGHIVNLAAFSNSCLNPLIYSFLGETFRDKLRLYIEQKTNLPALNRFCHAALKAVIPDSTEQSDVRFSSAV
T2 sequence (Q99527 whole entry): as above
Sequence of ERβ (Q92731 whole entry): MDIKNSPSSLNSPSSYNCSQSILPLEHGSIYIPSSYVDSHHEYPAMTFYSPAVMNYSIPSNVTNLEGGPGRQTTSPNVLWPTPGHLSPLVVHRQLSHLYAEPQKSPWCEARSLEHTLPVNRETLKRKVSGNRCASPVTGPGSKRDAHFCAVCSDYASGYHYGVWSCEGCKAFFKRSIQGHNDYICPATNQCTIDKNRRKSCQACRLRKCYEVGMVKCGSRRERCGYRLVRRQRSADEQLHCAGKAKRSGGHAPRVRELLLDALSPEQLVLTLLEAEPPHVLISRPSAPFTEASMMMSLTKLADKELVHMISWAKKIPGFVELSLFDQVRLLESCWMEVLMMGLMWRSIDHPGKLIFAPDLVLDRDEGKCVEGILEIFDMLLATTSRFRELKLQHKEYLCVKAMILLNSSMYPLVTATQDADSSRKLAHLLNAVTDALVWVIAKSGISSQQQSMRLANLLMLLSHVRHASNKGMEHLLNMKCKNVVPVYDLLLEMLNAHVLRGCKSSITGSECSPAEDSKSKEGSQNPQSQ

Compound: C[C@]12CC[C@@H]3c4ccc(O)cc4CC[C@H]3[C@@H]1CC[C@@H]2O [Estradiol, 17β-estradiol]
- ERs RBA% (ERs): 100.0%

Compound: CC(C)C[C@@H](C=O)NC(=O)[C@H](CC(C)C)NC(=O)[C@H](CC(C)C)NC(=O)OCc1ccccc1 [MG132] (Cbz-Leu-Leu-Leu-aldehyde)
- effect on UI-EP001/UI-EP002-mediated degradation of HiBiT-ERα (HiBiT-ERα): reversed
- effect on UI-EP001/UI-EP002-mediated degradation of HiBiT-GPER (HiBiT-GPER): reversed

Compound: Cc1ncsc1-c1ccc(CNC(=O)C2CC(O)CN2C(=O)C(NC(=O)COCCOCCOCCOCC(=O)O)C(C)(C)C)cc1 (centres unmarked) [Partial PROTAC]
- decrease of HiBiT-ERα (HiBiT-ERα; 100 μM, 1 hour): did not show any significant decrease
- competition for E2-FITC binding to GPER (GPER [1]): unable to compete
- cell cycle distribution shift (G2/M arrest) (SKBR3): much less significant shift
- decrease of HiBiT-GPER (HiBiT-GPER; 100 μM, 1 hour): did not show any significant decrease
- receptor present following treatment (HiBiT-GPER; 100 μM, 8 hrs, text does not say which receptor (HiBiT-GPER or HiBiT-ER)): 83%
- reduction of nuclear ERβ (ERβ): did not impact
- reduction of intracellular GPER (GPER [2]): did not impact
- reduction of nuclear ERα (ERα): did not impact
- cell cycle distribution shift (G2/M arrest) (MCF-7): much less significant shift
- cell cycle distribution shift (G2/M arrest) (HCC-1806): much less significant shift
- cell cycle distribution shift (G2/M arrest) (MDA-MB-231): much less significant shift

Further lines, results first:

- effect on UI-EP001/UI-EP002-mediated degradation of HiBiT-GPER (HiBiT-GPER): had no such effect
Compound: CCN(CC)CCCC(C)Nc1ccnc2cc(Cl)ccc12 (centres unmarked) [chloroquine, chloroquine diphosphate]

- effect on UI-EP001/UI-EP002-mediated degradation of HiBiT-ERα (HiBiT-ERα): not aldosterone was capable of blocking
- effect on UI-EP001/UI-EP002-mediated degradation of HiBiT-GPER (HiBiT-GPER): not aldosterone was capable of blocking
Compound: C[C@]12CCC(=O)C=C1CC[C@@H]1[C@@H]2[C@@H](O)C[C@]2(C=O)[C@@H](C(=O)CO)CC[C@@H]12 [aldosterone]
